Consider three substances from patent US20110110979A1, “METHOD AND VACCINE FOR […] SPECIFIC IMMUNE RESPONSES” (Universite De Lausanne, priority 2008, published 2011).

Assay [1] concerns the target HPV16 E749-57 peptide presented by H-2D^b (human papillomavirus type 16; mouse (C57BL/6)) (UniProt P01899).
For assay [2] the target is unchanged. This is another data set of the same source.
The test system of assay [3] is E749-57-specific CD8 T cells. Put plainly: ex vivo IFN-γ ELISPOT after E7 vaccination followed by ivag immunostimulant. The conditions noted are these: sc E71-98+CpG and HLT day 1; ivag immunostimulant day 6; analysis day 9. Format: in vivo, C57BL/6 mice.
A further assay has as its system E7-specific CD8 cells. The note with it: single dose HSp E7+poly IC followed by three consecutive daily doses of Poly IC alone; cited from earlier work.
In assay [4] the test system is E749-57-specific CD8 T cells. Put plainly: ex vivo IFN-γ ELISPOT after sc or i.n. immunization with E71-98 + adjuvants. Format: in vivo, C57BL/6 mice. The note with it: single 50 μg sc or i.n. dose, no adjuvant; 7 days after immunization.

In assay [1], “E7-specific CD8 T cells from C57BL/6 mice vaccinated with E71-98 + adjuvants (PBMC, spleen, lymph no (cells without a defined receptor)” gave an ex vivo IFN-γ ELISPOT (E7-specific IFN-γ secreting cells/10^5 cells) of 347. In addition, the in vivo cytotoxicity assay (specific lysis of CFSE-labeled peptide-pulsed splenocytes) in assay [2] came to 80%. “polyriboinosinic:polyribocytidylic acid [pI:C]”: the “E7-specific CD8 T cell responses in CV tissue vs ivag PBS” value in assay [3] is “strongly enhanced”. For the same substance, in the assay with E7-specific CD8 cells, the “numbers of E7-specific CD8 cells vs single dose of HspE7+poly IC” value is on record as “did not elicit a significant increase”.

Consider “E71-98: complete synthetic E7 polypeptide (residues 1-98) of human papillomavirus type 16”, for which the “E7-specific CD8 T cell responses in PBMC” value in assay [4] is given as “did not induce detectable E7-specific CD8 T cell responses”.
